# Source: ChEMBL document CHEMBL5390242, “Design, Synthesis, and Antitumor Efficacy of Substituted 2-Amino[1,2,4]triazolopyrimidines and Related Heterocycles as Dual Inhibitors for Microtubule Polymerization and Janus Kinase 2” (J Med Chem, 2023)
# Calls of active or inactive are those of the source. The calls are words filed in the database; no cut-off is given here.
# Experiments:
# [1] = Cytotoxicity against human HaCaT cells assessed as cell growth inhibition incubated for 48 hrs by MTT assay; format: toxicity, cell-based
# [2] = Resistance index, ratio of IC50 for antiproliferative activity against human A549/DDP cells to IC50 for antiproliferative activity against human A549 cells; format: functional
# A549 [3] = assay: Induction of apoptosis in human A549 cells assessed as increase in mitochondrial ROS level at 5 to 20 nM incubated for 16 hrs by MitoSOX red dye based fluorescence microscopy; format: functional, cell-based; conditions: dose 5-20 nM
# A549 [4] = assay: Induction of cell cycle arrest in human A549 cells assessed as accumulation of cells at G2/M phase at 5 nM incubated for 24 hrs by PI/RNase staining based flow cytometry analysis; format: functional
# A549 [5] = assay: Antiproliferative activity against human A549 cells assessed as cell growth inhibition incubated for 48 hrs by MTT assay; format: functional, cell-based; conditions: A549, 48 h
# A549 [6] = assay: Induction of mitochondrial membrane potential loss in human A549 cells by measuring red fluorescence at 20 nM incubated for 16 hrs by JC-1 staining based flow cytometry analysis (reference value: 99.3 %); format: functional
# COLO 205 = assay: Cytotoxicity against human COLO 205 cells assessed as cell growth inhibition incubated for 48 hrs by MTT assay; format: functional, cell-based; conditions: COLO 205, 48 h
# [7] = Tmax in CD-1 mouse at 1 mg/kg,iv measured upto 24 hrs by HPLC-MS/MS analysis; format: ADME, organism-based; conditions: in vivo
# A549 [8] = assay: Induction of mitochondrial membrane potential loss in human A549 cells by measuring green fluorescence at 20 nM incubated for 16 hrs by JC-1 staining based flow cytometry analysis (reference value: 0.7 %); format: functional
# Tubulin (Sus scrofa) = Tubulin (Sus scrofa) (UniProt P02554+P02550); assay: Inhibition of porcine brain tubulin polymerization at 0.625 to 2.5 uM measured for 30 mins in presence of GTP by microplate reader assay; format: tissue-based; conditions: dose 0.625-2.5 µM
# Chain of Tubulin (Sus scrofa) (P02550 whole entry, looked up): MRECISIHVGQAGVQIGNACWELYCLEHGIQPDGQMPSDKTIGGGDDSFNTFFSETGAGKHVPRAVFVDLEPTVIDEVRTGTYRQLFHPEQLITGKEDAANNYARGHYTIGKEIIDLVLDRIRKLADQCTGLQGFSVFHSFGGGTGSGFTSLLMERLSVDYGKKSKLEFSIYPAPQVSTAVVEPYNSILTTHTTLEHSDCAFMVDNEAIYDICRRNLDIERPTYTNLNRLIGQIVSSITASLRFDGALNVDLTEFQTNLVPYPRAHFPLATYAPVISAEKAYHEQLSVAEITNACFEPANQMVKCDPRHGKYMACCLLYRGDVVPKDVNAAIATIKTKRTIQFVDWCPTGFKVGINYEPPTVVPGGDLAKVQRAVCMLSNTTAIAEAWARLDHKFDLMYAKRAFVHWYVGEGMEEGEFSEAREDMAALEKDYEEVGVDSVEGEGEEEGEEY
# Chain of Tubulin (Sus scrofa) (P02554 whole entry, looked up): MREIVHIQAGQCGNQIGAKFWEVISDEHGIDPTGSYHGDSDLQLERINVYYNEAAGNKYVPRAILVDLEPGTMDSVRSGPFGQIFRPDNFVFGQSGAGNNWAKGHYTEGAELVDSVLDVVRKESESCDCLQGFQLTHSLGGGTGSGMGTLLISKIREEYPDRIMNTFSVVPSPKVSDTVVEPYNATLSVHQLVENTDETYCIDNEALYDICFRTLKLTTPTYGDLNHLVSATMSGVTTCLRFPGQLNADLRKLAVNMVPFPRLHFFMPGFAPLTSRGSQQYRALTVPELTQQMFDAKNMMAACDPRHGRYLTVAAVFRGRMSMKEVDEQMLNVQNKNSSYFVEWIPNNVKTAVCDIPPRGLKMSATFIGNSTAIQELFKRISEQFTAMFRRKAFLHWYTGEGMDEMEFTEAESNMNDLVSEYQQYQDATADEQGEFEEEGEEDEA
# [9] = AUC (0 to t) in CD-1 mouse at 10 mg/kg,ip measured upto 24 hrs by HPLC-MS/MS analysis; format: ADME, organism-based; parameters: dose 10 mg/kg, time < 24 hrs, route ip; conditions: in vivo
# A549 [10] = assay: Induction of mitochondrial membrane potential loss in human A549 cells by measuring red fluorescence at 5 nM incubated for 16 hrs by JC-1 staining based flow cytometry analysis (reference value: 99.3 %); format: functional
# Tubulin (Homo sapiens) = Tubulin (Homo sapiens) (UniProt P68371+Q9H4B7+P0DPH7+P68366+Q13509+Q71U36+P04350+Q3ZCM7+P07437+P68363+Q9BQE3+Q6PEY2+Q13885+Q9BVA1+Q9BUF5); assay: Disruption of microtubule assembly in human A549 cells at 1 uM incubated for 6 hrs by Hoechst33342 staining based immunofluorescence analysis; format: cell-based
# [11] = Antiproliferative activity against Chinese hamster CHO cells assessed as cell growth inhibition incubated for 48 hrs by MTT assay; format: toxicity, cell-based, Cricetulus griseus
# A549 [12] = assay: Induction of apoptosis in human A549 cells assessed as early apoptotic cells at 20 nM incubated for 24 hrs by Annexin V-FITC/PI staining based flow cytometry (reference value: 4.61 %); format: functional
# [13] = Half life in CD-1 mouse assessed as half life of metabolite at 10 mg/kg,ip measured upto 24 hrs by HPLC-MS/MS analysis; format: ADME, organism-based; conditions: in vivo
# [14] = Oral bioavailability in CD-1 mouse assessed as Oral bioavailability of metabolite at 10 mg/kg,ip measured upto 24 hrs by HPLC-MS/MS analysis; format: ADME, organism-based; conditions: in vivo
# [15] = Cmax in CD-1 mouse at 10 mg/kg,ip measured upto 24 hrs by HPLC-MS/MS analysis; format: ADME, organism-based; parameters: time < 24 hrs, dose 10 mg/kg, route ip; conditions: in vivo
# A549 [16] = assay: Induction of apoptosis in human A549 cells assessed as early apoptotic cells at 10 nM incubated for 24 hrs by Annexin V-FITC/PI staining based flow cytometry (reference value: 4.61 %); format: functional
# NCI/ADR-RES = assay: cells; conditions: Homo sapiens, 48 h
# Description: Antiproliferative activity against human MCF7ADR cells assessed as cell growth inhibition incubated for 48 hrs by MTT assay
# KP-4 = assay: Antiproliferative activity against human KP-4 cells assessed as cell growth inhibition incubated for 48 hrs by MTT assay; format: functional, cell-based; conditions: KP-4, 48 h
# BXPC-3 = assay: Antiproliferative activity against human BXPC-3 cells assessed as cell growth inhibition incubated for 48 hrs by MTT assay; format: functional, cell-based; conditions: BXPC-3, 48 h
# [17] = Resistance index, ratio of IC50 for antiproliferative activity against human HCT-8/VCR cells to IC50 for antiproliferative activity against human HCT-8 cells; format: functional
# [18] = Tmax in CD-1 mouse assessed as Tmax of metabolite at 10 mg/kg,ip measured upto 24 hrs by HPLC-MS/MS analysis; format: ADME, organism-based; conditions: in vivo
# Tubulin = Tubulin (Sus scrofa, UniProt P02554+P02550); assay: Inhibition of porcine brain tubulin polymerization measured for 30 mins in presence of GTP by microplate reader assay; format: tissue-based
# CWR22R = assay: Cytotoxicity against human 22Rv1 cells assessed as cell growth inhibition incubated for 48 hrs by MTT assay; format: functional, cell-based; conditions: 22Rv1, 48 h
# [19] = Cmax in CD-1 mouse at 1 mg/kg,iv measured upto 24 hrs by HPLC-MS/MS analysis; format: ADME, organism-based; parameters: dose 1 mg/kg, time < 24 hrs, route iv; conditions: in vivo
# A549 [20] = assay: Induction of apoptosis in human A549 cells assessed as late apoptotic cells at 20 nM incubated for 24 hrs by Annexin V-FITC/PI staining based flow cytometry (reference value: 1.72 %); format: functional
# [21] = MRT (0 to infinity) in CD-1 mouse at 10 mg/kg,ip measured upto 24 hrs by HPLC-MS/MS analysis; format: ADME, organism-based; conditions: in vivo
# [22] = MRT (0 to t) in CD-1 mouse at 10 mg/kg,ip measured upto 24 hrs by HPLC-MS/MS analysis; format: ADME, organism-based; conditions: in vivo
# A549 [23] = assay: Induction of apoptosis in human A549 cells assessed as late apoptotic cells at 10 nM incubated for 24 hrs by Annexin V-FITC/PI staining based flow cytometry (reference value: 1.72 %); format: functional
# HCT-8 = assay: Antiproliferative activity against human HCT-8 cells assessed as cell growth inhibition incubated for 48 hrs by MTT assay; format: functional, cell-based; conditions: HCT-8, 48 h
# A549 [24] = assay: Induction of mitochondrial membrane potential loss in human A549 cells by measuring green fluorescence at 5 nM incubated for 16 hrs by JC-1 staining based flow cytometry analysis (reference value: 0.7 %); format: functional
# A549 [25] = assay: Induction of apoptosis in human A549 cells assessed as early apoptotic cells at 5 nM incubated for 24 hrs by Annexin V-FITC/PI staining based flow cytometry (reference value: 4.61 %); format: functional
# A549 [26] = assay: Antitumor activity against human A549 cells xenografted in Balb/c mouse assessed as tumor size at 50 mg/kg,ip administration measured after 31 days; format: functional; conditions: time 31 day
# A549 [27] = assay: Induction of apoptosis in human A549 cells at 5 uM incubated for 24 hrs by Annexin V-FITC/PI staining based flow cytometry; format: functional
# [28] = AUC (0 to infinity) in CD-1 mouse assessed as AUC (0 to infinity) of metabolite at 10 mg/kg,ip measured upto 24 hrs by HPLC-MS/MS analysis; format: ADME, organism-based; parameters: time < 24 hrs, dose 10 mg/kg, route ip; conditions: in vivo
# [29] = target: Tyrosine-protein kinase JAK3 (Homo sapiens, UniProt P52333)
# Chain of Tyrosine-protein kinase JAK3 (P52333 whole entry): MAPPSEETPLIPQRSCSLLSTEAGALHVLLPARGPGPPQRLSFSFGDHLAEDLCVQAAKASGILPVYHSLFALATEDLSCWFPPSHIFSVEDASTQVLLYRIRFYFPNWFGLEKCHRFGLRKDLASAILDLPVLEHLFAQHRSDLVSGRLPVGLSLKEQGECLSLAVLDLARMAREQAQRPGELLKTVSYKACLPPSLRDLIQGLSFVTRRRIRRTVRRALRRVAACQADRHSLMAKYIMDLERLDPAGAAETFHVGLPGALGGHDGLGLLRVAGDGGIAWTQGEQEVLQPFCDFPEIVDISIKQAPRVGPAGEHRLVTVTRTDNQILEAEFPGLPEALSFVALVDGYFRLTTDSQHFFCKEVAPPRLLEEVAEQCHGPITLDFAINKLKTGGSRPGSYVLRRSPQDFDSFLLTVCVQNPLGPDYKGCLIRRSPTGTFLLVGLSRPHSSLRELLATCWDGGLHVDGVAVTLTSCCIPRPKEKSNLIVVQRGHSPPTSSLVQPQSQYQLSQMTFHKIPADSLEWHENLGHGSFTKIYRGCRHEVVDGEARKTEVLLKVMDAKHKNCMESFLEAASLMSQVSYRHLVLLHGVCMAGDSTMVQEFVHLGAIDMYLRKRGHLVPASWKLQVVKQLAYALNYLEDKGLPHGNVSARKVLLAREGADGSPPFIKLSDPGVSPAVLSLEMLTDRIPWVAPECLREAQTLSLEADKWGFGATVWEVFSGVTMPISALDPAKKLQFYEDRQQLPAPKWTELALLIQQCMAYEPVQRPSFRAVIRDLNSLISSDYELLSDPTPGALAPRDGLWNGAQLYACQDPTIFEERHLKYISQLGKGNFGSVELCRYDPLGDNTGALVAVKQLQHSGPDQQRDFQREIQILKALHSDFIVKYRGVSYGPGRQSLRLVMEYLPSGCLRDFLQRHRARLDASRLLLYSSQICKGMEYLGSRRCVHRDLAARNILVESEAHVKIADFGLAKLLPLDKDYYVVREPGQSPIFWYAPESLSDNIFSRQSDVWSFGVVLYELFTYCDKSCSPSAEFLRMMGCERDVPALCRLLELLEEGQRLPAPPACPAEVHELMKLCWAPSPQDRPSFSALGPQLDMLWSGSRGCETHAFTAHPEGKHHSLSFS
# Description: Inhibition of JAK3 (unknown origin) using Poly-(Glu,Tyr 4:1) peptide as substrate in presence of ATP by ADP-Glo reagent based assay
smiles,measurement,setting,value
COc1cc(-c2nccc3nc(Nc4cccc5[nH]ccc45)nn23)cc(OC)c1OC,IC50 at 48 h,[1],450 nM
same,Ratio IC50,[2],0.5
same,Activity,A549 [3],Active
same,Activity,A549 [4],15.6%
same,IC50,A549 [5],8 nM
same,Activity,A549 [6],55.9%
same,IC50,COLO 205,12.1 nM
same,Tmax,[7],6 min
same,Activity,A549 [8],44.1%
same,inhibition,Tubulin (Sus scrofa),Active
same,AUC(0-t) at 24 h,[9],559 ng·h/mL
same,Activity,A549 [10],89.1%
same,Activity,Tubulin (Homo sapiens),Active
same,IC50 at 48 h,[11],24 nM
same,Activity,A549 [12],34.6%
same,t1/2,[13],5.3 h
same,F,[14],69.7%
same,Cmax,[15],158 ng/mL
same,Activity,A549 [16],27.3%
same,IC50,NCI/ADR-RES,64 nM
same,IC50,KP-4,13 nM
same,IC50,BXPC-3,11 nM
same,Ratio IC50,[17],1.4
same,Tmax,[18],1 h
same,IC50,Tubulin,1300 nM
same,IC50,CWR22R,12.4 nM
same,Cmax,[19],117 ng/mL
same,Activity,A549 [20],50.8%
same,MRT inf,[21],5.6 h
same,MRT last at 24 h,[22],4.6 h
same,Activity,A549 [23],14.7%
same,IC50,HCT-8,34 nM
same,Activity,A549 [24],10.9%
same,Activity,A549 [25],7.51%
same,Activity,A549 [26],315.8 mm3
same,Activity,A549 [27],8.9%
same,AUC,[28],2604.3 ng·h/mL
same,IC50,[29],12200 nM
